Peptide text beside a SMILES is read from it.

The target in experiment [1] is receptor encoded by the DOR-1 clone (delta opioid receptor) (Mus musculus, UniProt P32300, V68C).
Experiment [2] has as its target T1, DOR-2 (mMOR-1) mu receptor (Mus musculus, UniProt P42866, H54D/R258Q/R47P/S53N/V245G).
T1 construct: expressed in transfected cells
Format: binding, murine.

Experiment [3] has as its target DOR-1 clone (delta opioid receptor) (Mus musculus, UniProt P32300, V68C).
Experiment [4] concerns opiate receptors.
Description: The purification of mono-iodinated from di-iodinated and non-iodinated DADLE by the HPLC step yields a ligand with very high specific activity (approximately 2000 Ci/mmol).

Chain of receptor encoded by the DOR-1 clone (delta opioid receptor) (P32300 whole entry V68C): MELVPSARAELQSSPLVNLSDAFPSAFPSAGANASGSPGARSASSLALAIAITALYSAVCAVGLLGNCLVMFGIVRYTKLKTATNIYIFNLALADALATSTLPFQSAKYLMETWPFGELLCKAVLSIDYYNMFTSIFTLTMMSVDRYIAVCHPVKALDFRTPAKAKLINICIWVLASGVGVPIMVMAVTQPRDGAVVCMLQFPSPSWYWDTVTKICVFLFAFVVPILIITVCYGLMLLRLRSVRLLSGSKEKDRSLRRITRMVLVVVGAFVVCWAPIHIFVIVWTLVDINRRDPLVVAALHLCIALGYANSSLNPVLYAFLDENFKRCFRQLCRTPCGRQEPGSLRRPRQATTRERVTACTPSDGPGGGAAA
T1 sequence (P42866 whole entry R47P/S53N/H54D/V245G/R258Q): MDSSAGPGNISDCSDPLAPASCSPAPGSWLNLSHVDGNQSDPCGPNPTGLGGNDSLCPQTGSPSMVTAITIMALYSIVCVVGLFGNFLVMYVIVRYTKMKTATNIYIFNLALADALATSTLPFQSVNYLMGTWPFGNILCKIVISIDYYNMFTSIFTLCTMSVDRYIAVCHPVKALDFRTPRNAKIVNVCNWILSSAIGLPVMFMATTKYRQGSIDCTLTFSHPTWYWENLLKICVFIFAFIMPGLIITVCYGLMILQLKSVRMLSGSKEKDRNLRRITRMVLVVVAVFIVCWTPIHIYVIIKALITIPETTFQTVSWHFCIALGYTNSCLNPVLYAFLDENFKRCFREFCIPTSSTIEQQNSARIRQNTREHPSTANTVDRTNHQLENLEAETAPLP
Chain of DOR-1 clone (delta opioid receptor) (P32300 whole entry V68C): as the sequence (P32300 whole entry V68C) above

On to `C[C@@H](NC(=O)[C@@H](N)Cc1ccc(O)cc1)C(=O)NCC(=O)N(C)[C@@H](Cc1ccccc1)C(=O)NCCO` [DAGO, D-Alka^2-N-MePhe^4-Gly-ol^5-enkephalin], for which the “displacement of 3H-diprenorphine” value in experiment [1] is recorded as “Only weak displacement”. For the same molecule, the “displacement of 3H-DPN” value in experiment [2] is “displacement of ^3H-DPN by nanomolar concentrations”. The “displacement of 125I-DADLE binding” value in experiment [3] was “did not displace”.

As for `CN1CC[C@]23CCCC[C@H]2[C@H]1Cc1ccc(O)cc13` [levorphanol], in experiment [1], the “displacement of 3H-diprenorphine” value is on record as “displaced”; the “displacement of 3H-diprenorphine, rank in decreasing order of affinity” value was “in decreasing order of affinity, was observed with diprenorphine, etorphine, levorphanol and morphine”. In addition, the “displacement of 125I-DADLE binding” value in experiment [3] is on record as “did displace”.

As to `NC(=O)[C@@H]1CCCN1C(=O)[C@H](Cc1ccccc1)NC(=O)[C@@H]1CCCN1C(=O)[C@@H](N)Cc1ccc(O)cc1` [morphiceptin] (H-YPFP-NH2), the “displacement of 3H-DPN” value in experiment [2] is “displacement of ^3H-DPN by nanomolar concentrations”.

Take “mono-^125I-2dAla, 5dLeu enkephalin [^125I-DADLE]”: the “binding affinity compared with DADLE” value in experiment [4] is listed as “slightly lower”.

For the origin of these results see patent US7723071B2 (priority 1992, dated 2010).
